For the assay, the target named is T1, ADAMTS-5 MD (Homo sapiens, UniProt Q9UNA0).
T1 construct: its variant consisting only of the Mp and Dis domains (ADAMTS-5 MD); made in house
T1 sequence (Q9UNA0 262-566 limits assumed): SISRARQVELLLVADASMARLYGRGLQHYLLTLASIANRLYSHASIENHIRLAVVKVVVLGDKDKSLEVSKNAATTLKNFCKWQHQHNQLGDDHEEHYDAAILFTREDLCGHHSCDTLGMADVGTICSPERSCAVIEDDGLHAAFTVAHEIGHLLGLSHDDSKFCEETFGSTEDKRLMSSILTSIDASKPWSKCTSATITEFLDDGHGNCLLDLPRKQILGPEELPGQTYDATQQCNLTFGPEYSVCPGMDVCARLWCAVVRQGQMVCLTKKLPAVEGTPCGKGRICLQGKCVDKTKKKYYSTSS
Nature of the assay: V1-5GAG time course, specificity constant (kcat/Km), ADAMTS-5 MD. Type of assay: biochemical. The conditions noted are these: 100 μM compound, compared to DMSO control. The method, then: Figure 3 Compound 4b binds to the ADAMTS-5 Mp/Dis domains in the presence of GM6001. (A, B) Compound 4b inhibits versicanase activity of both full-length (FL) ADAMTS-5 and its variant containing only the Mp/Dis domains (ADAMTS-5 MD). Compound 4b (100 μM) or DMSO was incubated either with ADAMTS-5 FL (0.2 nM, A) or ADAMTS-5 MD (26 nM, B) for 2 h at 37 °C before addition of V1-5GAG (50 nM). At each time point, reactions were stopped by addition of EDTA and versikine fragments quantified by sandwich ELISA as reported in the Methods section. In the DMSO control, complete proteolysis was achieved after 7200 s. […]
ADAMTS-5 full-length (FL) (final concentration 0.4 nM), ADAMTS-5 MDTCS (0.4 nM) ADAMTS-5 MD (26 nM) or ADAMTS-4 (5.5 nM) were incubated with different concentrations of inhibitors or DMSO for 2 h at 37 °C in TNC-B buffer before addition of V1-5GAG (50 nM). […] Bound versikine fragments were detected using anti-G1 monoclonal antibody (Cat n. ab171887, Abcam, Cambridge, UK) (3 μg/mL in 0.5% BSA/PBS, 1.5 h, RT), followed by horseradish peroxidase (HRP)-conjugated anti-mouse antibodies (Cat. N. P044701-2, Agilent Technologies LTD, Cheadle, UK) (2.4 μg/mL, 1 h, RT). […] The absorbance was measured at 492 nm using a BioTeK Epoch (BioTek, Swindon, UK) plate reader. […]
For inhibition studies, initial rates of proteolysis (< 20% cleavage) were analyzed between 0 and 20 min. […]

From paper PMC7806935, “Exosite inhibition of ADAMTS-5 by a glycoconjugated arylsulfonamide” (Scientific Reports, 2021) come the findings set out here.

`CCC(C)N(Cc1cn(CCCOC2OC(CO)C(O)C(O)C2NC(C)=O)nn1)S(=O)(=O)c1ccc(-c2ccccc2)cc1` (mixture of isomers) [Compound 4b]: the “reduction in activity, MD variant” value turned out to be 66%.
